According to patent publication US9161895B1, “Compositions and methods for improving overall tooth health and appearance” (The Procter & Gamble Company, priority 2008, dated 2015):

Assays:
[1] = in vitro erosion cycling protocol (citric acid challenge, transverse microradiography); design: species or system human; details: for Surface Loss: aqueous solutions of test organophosphates (control: dentifrice slurry 1:3) in pooled human saliva, 1% citric acid 10 min, 4 treatments/day, 5 days, depth of total mineral loss by TMR; for % reduction vs. regular F control: reduction in surface mineral loss relative to Fluoride toothpaste (1100 ppm F), aqueous solutions
Experimental: The effectiveness of compositions of the present invention containing an organophosphate was evaluated according to the following in vitro erosion cycling protocol.
Tooth (dentin or enamel) specimens are prepared by cutting 3 mm-4 mm cores from extracted, human teeth using a diamond core drill. The teeth, collected by local surgeons, are stored until use in a 5% Thymol solution maintained at room temperature. Specimens are mounted on lucite rods with a dental acrylic (Dura Base, Reliance Mfg. Co.) covering all sides except the surface. Course polishing with 600-grit silicon carbide-water slurry is used to remove approximately 50 microns of the outer specimen surface to ensure homogeneity among specimens. Specimens are then polished with gamma alumina (Buehler No. 3, B Gamma Micropolish Alumina) to a mirror-like finish.
Approximately ⅔ of the surface of each specimen is then covered with an acid resistant nail polish (placed in a mesial-distal fashion), leaving the center portion exposed as a treatment window. Covered portions remain covered with the acid-resistant nail polish throughout the experiment, serving as the control (untreated) areas for later microradiographic analysis. Specimens are randomly assigned to one of four treatment groups (4 specimens/group).
Each group of specimens is placed in 20 ml of fresh, pooled human saliva for at least one hour to form an initial layer of pellicle on the specimen surfaces prior to first day of treatment. To begin the treatment phase, aqueous solutions of the test organophosphates and dentifrice slurry (1:3) of the control fluoride toothpaste are prepared in fresh, pooled human saliva. Each treatment cycle consists of: dentifrice slurry (2 min)→rinse in deionized distilled H2O→saliva (1 hour)→erosion challenge (10 min)→rinse in ddiH2O→saliva. There are 4 treatments per day for a total of five treatment days. Dentifrice treatments consist of immersing the specimens into the dentifrice slurry for two minutes while specimens rotate at 75 rpm. The erosion challenge consists of soaking each treatment group in 12 ml of 1% Citric acid (at room temperature). At any time specimens are not in treatment, they remain in 20 ml of pooled, human saliva (stirred). The saliva is refreshed 3×/day. At night, each group of specimens remains immersed in saliva (stirred at room temperature).
After 5 days of treatment, thin cross-sections (80-120 μm thick) of each specimen are removed for assessment using standardized transverse microradiography (TMR) techniques. The exposed, treated area of each specimen is assessed with respect to complete mineral loss (erosion). Results with simple aqueous solutions of various alkyl phosphate compounds are presented in Table 1 as depth (in microns) of total mineral loss from the original specimen surface using the covered (untreated) areas as anatomical reference points. For comparison, percent reduction in surface mineral loss is calculated relative to water or fluoride containing compositions.

[2] = system: total aerobes (pooled saliva inoculum); assay: bacterial time kill assay of CPC mouthrinse formulations; type: cell-based; details: 30 seconds
[3] = compatibility of organophosphate additives with stannous fluoride solutions: visual inspection and soluble tin in supernatant; type: physicochemical
Experimental: Aqueous formulations of polyvalent metal antibacterial agents were prepared and evaluated for clarity, chemical content and performance when mixed with various organophosphate additives as described above. The compositions comprise stannous fluoride as an example of polyvalent metal cation in combination with sodium gluconate or sodium tripolyphosphate as stabilizer and organophosphate additives. The compositions also contained zinc. […] Following addition of additives, the solutions were immediately inspected for any visual changes and then analyzed for soluble tin in the supernatants after centrifugation.

[4] = mouthrinse: organophosphate additive 0.05%, CPC 0.05%
[5] = mouthrinse: organophosphate additive 0.1%, CPC 0.1%
[6] = stannous fluoride/sodium gluconate solution, additive 1.0%
[7] = stannous fluoride/sodium tripolyphosphate solution, additive 1.0%
[8] = 0.454% stannous fluoride/3.0% sodium tripolyphosphate solution, additive 2.0%
[9] = stannous fluoride/sodium gluconate solution, additive 0.5%
[10] = 0.454% stannous fluoride/0.6% sodium gluconate solution, additive 2.0%
[11] = stannous fluoride/sodium gluconate solution, additive 0.2%
[12] = stannous fluoride/sodium tripolyphosphate solution, additive 0.08%

Substance: Laureth 3 phosphate [Foamphos L-3]
- Surface Loss [1]: 13.25 μm
- % reduction vs. regular F control [1]: 60.74%
- Log Reduction vs. water control [2, 4]: 2.04
- Log Reduction vs. water control [2, 5]: 2.05
- Soluble Tin [3, 6]: 1371 ppm
- Visual Inspection [3, 6]: Slight precipitate
- Soluble Tin [3, 7]: 3496 ppm
- Visual Inspection [3, 7]: Slight hazy

Substance: Laureth-1 phosphate [MAP L210]
- Surface Loss [1]: 25.75 μm
- % reduction vs. regular F control [1]: 23.70%
- Soluble Tin [3, 8]: 1888 ppm
- Visual Inspection [3, 8]: Slight precipitate
- Soluble Tin [3, 9]: 1419 ppm
- Visual Inspection [3, 9]: Slight precipitate

Substance: Laureth-9 phosphate [Foamphos L-9]
- Log Reduction vs. water control [2, 4]: 2.76
- Log Reduction vs. water control ([2]; mouthrinse: organophosphate additive 0.1%, CPC 0.05%): 2.76
- Log Reduction vs. water control [2, 5]: 2.76
- clarity of stannous fluoride solutions (in words) [3]: clear solutions
- soluble stannous (in words) [3]: high levels of soluble stannous
- Soluble Tin [3, 10]: 3145 ppm
- Visual Inspection [3, 10]: Slight hazy
- Soluble Tin [3, 8]: 2511 ppm
- Visual Inspection [3, 8]: Clear

Substance: PPG5 ceteareth-10 phosphate [CrodaphosSG]
- Surface Loss [1]: 18.50 μm
- % reduction vs. regular F control [1]: 45.19%

Substance: Potassium C12/13 phosphate [MAP 230K]
- Surface Loss [1]: 10.50 μm
- % reduction vs. regular F control [1]: 68.89%
- Log Reduction vs. water control ([2]; mouthrinse: organophosphate additive 0.0335%, CPC 0.0165%): −0.05
- Log Reduction vs. water control ([2]; mouthrinse: organophosphate additive 0.04%, CPC 0.01%): −0.01
- Soluble Tin [3, 11]: 2015 ppm
- Visual Inspection [3, 11]: Slight precipitate
- Soluble Tin [3, 12]: 2814 ppm
- Visual Inspection [3, 12]: Slight precipitate

Substance: Sodium diLaureth-10 phosphate [DLP-10]
- Soluble Tin [3, 10]: 2886 ppm
- Visual Inspection [3, 10]: Clear

Substance: Trilaureth-4 phosphate [Hostaphat KL 340D]
- Surface Loss [1]: 22.50 μm
- % reduction vs. regular F control [1]: 33.33%
